For test [1], the system named is mice. In words: tail hanging test, activity on the S.N.C. (central nervous system), mice, oral. In kind it is in vivo, mouse. As to conditions: 1 hour before the test; for change in vivo at 32 mg/kg / change in vivo at 128 mg/kg: Mus musculus, po, 1 h, read-out: S.N.C.: Hanging test, activity percentages compared with the controls. Here is the method: This activity was investigated on mice using the tail hanging test in accordance with the procedure described by Thierry et al. (Behavioral and Neural Biology, 1984, 41, 180-189), which was proposed as a model for the animal for the selection of products active on the S.N.C.
The tests were carried out on batches of 10 male mice for each product and at each dose, the substances to be investigated being administered orally in aqueous solution 1 hour before the test, a control batch only receiving distilled water.
The results of the tests are given in activity percentages compared with the controls.

The test system of test [2] is mice. In words: acetic acid test, analgesic activity, mice, oral. The format is in vivo, mouse. As to conditions: for Analgesia: Acetic acid test, percentages of analgesed animals: Dose: 30 mg/kg, 30 minutes before acetic acid injection; for ED50: Mus musculus, read-out: Analgesia: Acetic acid test, ED50 (dose causing analgesia of 50% of the animals). The protocol: This was investigated and determined on mice using the acetic acid test according to a procedure derived from that of Troster R. (Fed. Proc. 1959, 18, 412).
20 hours prior to the test, the animals were starved of food and drink. This was followed by the oral administration in aqueous solution of the product to be investigated at a rate of 2 ml of solution per 100 g of body weight, which was followed 30 minutes later by an intraperitoneal injection of 0.25 ml of 0.25% acetic acid solution (wt/v) maintained at 37° C. 30 minutes after this injection, the number of abdominal cramps suffered by the animals were counted for a period of 10 minutes.
The animals were considered to be analgesed when the number of cramps suffered was less than half the mean value of the cramps experienced by the controls.
The products were administered at a dose rate of 30 mg-kg^-1 and the results are given in percentages of analgesed animals. For certain products, several doses were administered and the calculation of their ED50 (dose causing analgesia of 50% of the animals) was determined in log probability units.

As to `CN(C)CCCN1c2ccccc2CCc2ccc(Cl)cc21` [Clomipramine, clomipramine, reference compound], in the test with mice [1] (Dose: 32 mg/kg), the change in vivo at 32 mg/kg was -49%. For the same compound, in the test on mice [1] (Dose: 128 mg/kg), the change in vivo at 128 mg/kg is -54%.

`CC(N)(CO)Cc1ccc(Cl)c(Cl)c1` (single isomer, unassigned; (+)) [JO 1307, (+) 2-methyl-2-amino-3-(3,4-dichlorophenyl)-propanol]: in the test on mice [2], the “Analgesia: Acetic acid test, percentages of analgesed animals” value (“Analgesia: Acetic acid test, percentages” for short) is listed as -50%. Consider `CC(N)(CO)Cc1ccc(Cl)c(Cl)c1` (racemic) [JO 1275, (±) 2-methyl-2-amino-3-(3,4-dichlorophenyl)-propanol], for which the change in vivo at 32 mg/kg in the test with mice [1] (Dose: 32 mg/kg) was -78%. The change in vivo at 128 mg/kg in the test with mice [1] (Dose: 128 mg/kg) is -86%. Further, the “Analgesia: Acetic acid test, percentages” value in the test on mice [2] is given as -43%. For the compound `CCNC(C)(CO)Cc1ccc(Cl)c(Cl)c1` (single isomer, unassigned; (-)) [JO 1296, (-) 2-methyl-2-ethylamino-3-(3,4-dichlorophenyl)-propanol], the “Analgesia: Acetic acid test, percentages” value with mice [2] is on record as -38%. The term ED50 denotes the dose that gives a 50% effect, or the effect in half of the subjects. In the case of `CN(C)C(C)(CO)Cc1ccc(Cl)c(Cl)c1` (racemic) [JO 1017, (±) 2-methyl-2-dimethylamino-3-(3,4-dichlorophenyl)-propanol], the change in vivo at 32 mg/kg in the test with mice [1] (Dose: 32 mg/kg) is -65%. Further, in the test with mice [1] (Dose: 128 mg/kg), the change in vivo at 128 mg/kg was -85%. Moreover, in the test on mice [2], the “Analgesia: Acetic acid test, percentages” value is reported as -86% and the ED50 is 14 mg/kg. As to `CC(C)C(N)(CO)Cc1ccc(Cl)c(Cl)c1` (racemic) [JO 1579, (±) 2-isopropyl-2-amino-3 (3,4-dichlorophenyl)-propanol], the change in vivo at 128 mg/kg with mice [1] (Dose: 128 mg/kg) is -67%. For `CCCCCC(N)(CO)Cc1ccc(Cl)c(Cl)c1` (racemic) [JO 1562, (±) 2-pentyl-2-amino-3 (3,4-dichlorophenyl)-propanol], the change in vivo at 32 mg/kg with mice [1] (Dose: 32 mg/kg) is -73%. `CN(C)C(C)(CO)Cc1ccc(Cl)c(Cl)c1` (single isomer, unassigned; (-)) [JO 1239, (-) 2-methyl-2-dimethylamino-3-(3,4-dichlorophenyl)-propanol]: the “S.N.C.: Hanging test, activity percentages compared with the controls” value in the test with mice [1] (Dose: 32 mg/kg, 32 mg/kg) is reported as -74%. Also, in the test on mice [1] (Dose: 128 mg/kg, 128 mg/kg), the “S.N.C.: Hanging test, activity percentages compared with the controls” value is -64%. In the test with mice [2], the “Analgesia: Acetic acid test, percentages” value is -86% and the ED50 was 11 mg/kg. Turning to `CCN(C)C(C)(CO)Cc1ccc(Cl)c(Cl)c1` (racemic) [JO 1291, (±) 2-methyl-2-(N-methyl, N-ethyl)-amino-3-(3,4-dichlorophenyl)-propanol], in the test with mice [1] (Dose: 32 mg/kg), the change in vivo at 32 mg/kg is -58%. In addition, the “Analgesia: Acetic acid test, percentages” value in the test with mice [2] was -38%. Consider `C=CCN(C)C(C)(CO)Cc1ccc(Cl)c(Cl)c1` (racemic) [JO 1581, (±) 21-methyl-2-(N-methyl, N-allyl)-amino-3-(3,4-dichlorophenyl)-propanol], for which, in the test on mice [1] (Dose: 128 mg/kg), the change in vivo at 128 mg/kg is -61%. As to `CNC(C)(CO)Cc1ccc(Cl)c(Cl)c1` (single isomer, unassigned; (+)) [JO 1308, (+) 2-methyl-2-methylamino-3-(3,4-dichlorophenyl)-propanol], in the test on mice [2], the “Analgesia: Acetic acid test, percentages” value is -88%. On to `CNC(C)(CO)Cc1ccc(Cl)c(Cl)c1` (racemic) [JO 1276, (±) 2-methyl-2-methylamino-3-(3,4-dichlorophenyl)-propanol], for which the change in vivo at 32 mg/kg in the test on mice [1] (Dose: 32 mg/kg) was -58%. The change in vivo at 128 mg/kg in the test with mice [1] (Dose: 128 mg/kg) is -83%. For the same compound, in the test with mice [2], the “Analgesia: Acetic acid test, percentages” value is on record as -86% and the ED50 came to 8.5 mg/kg. On to `CCCCCC(CO)(Cc1ccc(Cl)c(Cl)c1)N(C)C` (racemic) [JO 1564, (±) 2-pentyl-2-dimethylamino-3-(3,4-dichlorophenyl)-propanol], for which, in the test with mice [1] (Dose: 128 mg/kg), the change in vivo at 128 mg/kg was -74%. For `CCCCCC(CO)(Cc1ccc(Cl)c(Cl)c1)NC` (racemic) [JO 1563, (±) 2-penthyl-2-methylamino-3-(3,4-dichlorophenyl)-propanol], in the test with mice [1] (Dose: 32 mg/kg), the change in vivo at 32 mg/kg is -49%. The change in vivo at 128 mg/kg in the test on mice [1] (Dose: 128 mg/kg) is -71%.

On to `CN(C)C(C)(CO)Cc1ccc(Cl)c(Cl)c1` (single isomer, unassigned; (+)) [JO 1240, (+) 2-methyl-2-dimethylamino-3-(3,4-dichlorphenyl)-propanol], for which the “S.N.C.: Hanging test, activity percentages compared with the controls” value is -77% with mice [1] (Dose: 32 mg/kg, 32 mg/kg) and -85% with mice [1] (Dose: 128 mg/kg, 128 mg/kg). In the case of `CN(CCc1ccccc1)C(C)(CO)Cc1ccc(Cl)c(Cl)c1` (racemic) [JO 1457, (±) 2-methyl-2-[N-methyl, N-(2-phenyl)-ethyl]-amino-3-(3,4-dichlorophenyl)-propanol], the change in vivo at 32 mg/kg in the test on mice [1] (Dose: 32 mg/kg) is -60%. Turning to `CCNC(C)(CO)Cc1ccc(Cl)c(Cl)c1` (racemic) [JO 1277, (±) 2-methyl-2-ethylamino-3-(3,4-dichlorophenyl)-propanol], the “Analgesia: Acetic acid test, percentages” value with mice [2] is listed as -43%.

The record behind these values is patent publication US4994617A, “Aminoalcohols, their preparation process and their applications, particularly in therapeutics” (Jouveinal S.A., priority 1986, dated 1991).
